Drawing on PMC4976878 (PLoS ONE, 2016), this text covers IC50 for three compounds.

pIC50: −log10 of the molar value.

Assay [1] deals with T1, human mitochondrial MetRS (Homo sapiens, UniProt Q96GW9).
T1 construct: gene MARS2
T1 sequence (Q96GW9 30-593): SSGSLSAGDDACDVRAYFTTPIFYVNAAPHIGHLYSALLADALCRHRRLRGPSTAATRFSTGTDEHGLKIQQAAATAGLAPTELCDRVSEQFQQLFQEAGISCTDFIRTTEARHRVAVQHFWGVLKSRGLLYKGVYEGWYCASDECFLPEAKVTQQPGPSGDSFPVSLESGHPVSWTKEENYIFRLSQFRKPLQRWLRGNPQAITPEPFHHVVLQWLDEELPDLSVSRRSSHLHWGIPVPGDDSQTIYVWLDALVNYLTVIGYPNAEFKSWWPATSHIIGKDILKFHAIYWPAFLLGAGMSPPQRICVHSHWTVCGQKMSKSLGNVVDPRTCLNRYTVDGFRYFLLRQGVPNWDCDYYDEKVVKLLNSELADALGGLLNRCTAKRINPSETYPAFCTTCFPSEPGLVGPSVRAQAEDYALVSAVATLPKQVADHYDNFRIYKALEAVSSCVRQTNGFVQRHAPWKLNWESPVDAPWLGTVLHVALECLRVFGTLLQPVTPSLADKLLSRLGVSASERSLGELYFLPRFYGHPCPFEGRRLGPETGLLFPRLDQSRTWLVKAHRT
The assay can be described thus: enzyme inhibition, assay not given. It counts as biochemical.

Assay [2] addresses T2, BmMetRS (Brucella melitensis methionyl-tRNA-synthetase) (Brucella abortus, UniProt Q2YQ76).
T2 construct: gene metG
The assay can be described thus: biochemical.

T2 sequence (Q2YQ76 1-515 limits assumed): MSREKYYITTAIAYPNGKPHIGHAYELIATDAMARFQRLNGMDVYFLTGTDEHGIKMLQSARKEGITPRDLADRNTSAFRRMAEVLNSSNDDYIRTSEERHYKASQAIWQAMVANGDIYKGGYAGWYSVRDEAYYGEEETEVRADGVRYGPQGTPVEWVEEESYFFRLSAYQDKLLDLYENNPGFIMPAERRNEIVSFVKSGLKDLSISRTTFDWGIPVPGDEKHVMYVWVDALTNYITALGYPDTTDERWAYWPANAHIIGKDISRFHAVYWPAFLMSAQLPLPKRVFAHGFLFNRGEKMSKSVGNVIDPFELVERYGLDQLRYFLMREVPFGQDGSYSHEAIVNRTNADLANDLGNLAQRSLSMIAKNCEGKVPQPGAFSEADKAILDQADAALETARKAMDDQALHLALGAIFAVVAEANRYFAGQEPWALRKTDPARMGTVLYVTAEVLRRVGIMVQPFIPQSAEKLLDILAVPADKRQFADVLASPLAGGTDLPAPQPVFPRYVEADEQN

On to `O=c1cc(NCCCNCc2cc(Cl)cc(Cl)c2)[nH]c2ccccc12` [compound 1312, 1312], for which the IC50 result in assay [1] is on record as “the IC50 values from human mitochondrial MetRS is very similar to that of BmMetRS”. The same compound showed a pIC50 in assay [2] of 8.22.
As for `COc1cc(Cl)cc(CNCCCNC(=O)Nc2ccccc2)c1` [compound 1415, 1415], the IC50 entry in assay [1] is “The characteristics of each inhibitor experimentally measured against human mitochondria MetRS”. Moreover, the pIC50 in assay [2] is 5.78.
In the same order, the values of `O=C(NCCCNCc1cc(Cl)cc(Cl)c1)Nc1ccsc1` [compound 1433, 1433] are “The characteristics of each inhibitor experimentally measured against human mitochondria MetRS” and 6.57.
